Assay results: PMC9942619, “Oseltamivir phosphate for suspension is bioequivalent to TAMIFLU in healthy volunteers: a randomized, open-label clinical study” (BMC Pharmacology & Toxicology, 2023)

Columns and labels:
[1] = Single-dose crossover pharmacokinetics of oseltamivir and oseltamivir carboxylate in plasma (HPLC-MS/MS, non-compartmental analysis); type: in vivo, healthy Chinese subjects; settings: fed vs fasting; plasma analyte
From the text: This study was developed in healthy subjects in the fasting or postprandial state, using a single-dose, randomized, open-label, two-period, two-sequence, self-crossover design. It authorized by the Ethics Committee of the First Affiliated Hospital of Bengbu Medical College. The ethical approval process complies with the requirements of Good Clinical Practice (GCP), the Declaration of Helsinki and relevant Chinese laws and regulations. Registration number CTR20200764 at 26-Apr-2020. http://www.chinadrugtrials.org.cn/clinicaltrials.searchlist.dhtml.
According to "the Guiding Principles for Human Bioavailability and Bioequivalence test of Pharmaceutical Preparations (2015 Edition)", "the Guiding Principles for Human Bioequivalence Research of Chemical Drug Imitations with Pharmacokinetic Parameters as the End Point Evaluation Indicators", and recommended dose in Tamiflu® instructions, the single oral dose of 75 mg/12.5 mL was determined for the reference preparation and test preparation of this study. […] Assuming one-sided α = 0.05, β = 0.2, %CV of 31.87%, a mean ratio F between the test product and reference product of 1, and the bioequivalence interval of 80.00–125.00%, the sample size of the two-period, crossover study design is 35 cases, calculated by PASS software. […] The quantitative linear range of oseltamivir is 0.500–200 ng/mL, and the LLOQ is 0.500 ng/mL. The quantitative linear range of oseltamivir carboxylate is 4.00–800 ng/mL, and the LLOQ is 4.00 ng/mL.
Pharmacokinetic parameters of oseltamivir and oseltamivir carboxylate were calculated using Phoenix WinNonlin (Pharsight Corporation, 8.3.1) based on individual blood concentrations and sampling time (calculated by actual sampling time) using non-compartmental analysis (NCA), Cmax, Tmax, AUC0-t, AUC0-∞, t1/2, λz, as well as %AUCex for oseltamivir and oseltamivir carboxylate were included. […]

[2] = parameters: method as in doi:10.1002/14651858.CD008965.pub4, PMID 25640810, PMID 12908848; settings: cited from earlier work
[3] = parameters: method as in earlier work; settings: used for sample size estimation; cited from earlier work
influenza pneumonia = test system: influenza pneumonia; parameters: method as in PMID 33718494; settings: early treatment compared with late treatment; cited from earlier work

Structure (SMILES)	Cmax, AUC0-t under fed conditions [1]	change of AUC0-∞ after feeding [1]	incidence of other side effects (conjunctivitis, rhinorrhagia, allergy, cardiac arrhythmias, gastrointestinal bleeding, neuropsychiatric events etc.) [2] [%]	incidence of nausea ([2]; most common side effects) [%]	incidence of vomiting ([2]; most common side effects)	intra-individual coefficient of variation (%CV) of AUC [3]	intra-individual coefficient of variation (%CV) of Cmax [3]	reduction in ICU mortality (influenza pneumonia) [%]
CCC(CC)O[C@@H]1C=C(C(=O)O)C[C@H](N)[C@H]1NC(C)=O [oseltamivir carboxylate]	lowered	decreases						
CCOC(=O)C1=C[C@@H](OC(CC)CC)[C@H](NC(C)=O)[C@@H](N)C1 [oseltamivir phosphate]			< 1	10	2–15%			
CCOC(=O)C1=C[C@@H](OC(CC)CC)[C@H](NC(C)=O)[C@@H](N)C1 [oseltamivir]		increases				7.24–7.35%	21.16–31.87%	33
